Data as given in publication PMC11408249, “Non-invasive in vivo imaging of changes in Collagen III turnover in myocardial fibrosis” (npj Imaging, 2024).

Target: T1, COL3 (Mus musculus, UniProt P08121)
T1 construct: from tissue; host or cells: infarcted left-ventricular myocardium of female CD1 mice, in vivo
T1 sequence (P08121 155-1219 limits assumed): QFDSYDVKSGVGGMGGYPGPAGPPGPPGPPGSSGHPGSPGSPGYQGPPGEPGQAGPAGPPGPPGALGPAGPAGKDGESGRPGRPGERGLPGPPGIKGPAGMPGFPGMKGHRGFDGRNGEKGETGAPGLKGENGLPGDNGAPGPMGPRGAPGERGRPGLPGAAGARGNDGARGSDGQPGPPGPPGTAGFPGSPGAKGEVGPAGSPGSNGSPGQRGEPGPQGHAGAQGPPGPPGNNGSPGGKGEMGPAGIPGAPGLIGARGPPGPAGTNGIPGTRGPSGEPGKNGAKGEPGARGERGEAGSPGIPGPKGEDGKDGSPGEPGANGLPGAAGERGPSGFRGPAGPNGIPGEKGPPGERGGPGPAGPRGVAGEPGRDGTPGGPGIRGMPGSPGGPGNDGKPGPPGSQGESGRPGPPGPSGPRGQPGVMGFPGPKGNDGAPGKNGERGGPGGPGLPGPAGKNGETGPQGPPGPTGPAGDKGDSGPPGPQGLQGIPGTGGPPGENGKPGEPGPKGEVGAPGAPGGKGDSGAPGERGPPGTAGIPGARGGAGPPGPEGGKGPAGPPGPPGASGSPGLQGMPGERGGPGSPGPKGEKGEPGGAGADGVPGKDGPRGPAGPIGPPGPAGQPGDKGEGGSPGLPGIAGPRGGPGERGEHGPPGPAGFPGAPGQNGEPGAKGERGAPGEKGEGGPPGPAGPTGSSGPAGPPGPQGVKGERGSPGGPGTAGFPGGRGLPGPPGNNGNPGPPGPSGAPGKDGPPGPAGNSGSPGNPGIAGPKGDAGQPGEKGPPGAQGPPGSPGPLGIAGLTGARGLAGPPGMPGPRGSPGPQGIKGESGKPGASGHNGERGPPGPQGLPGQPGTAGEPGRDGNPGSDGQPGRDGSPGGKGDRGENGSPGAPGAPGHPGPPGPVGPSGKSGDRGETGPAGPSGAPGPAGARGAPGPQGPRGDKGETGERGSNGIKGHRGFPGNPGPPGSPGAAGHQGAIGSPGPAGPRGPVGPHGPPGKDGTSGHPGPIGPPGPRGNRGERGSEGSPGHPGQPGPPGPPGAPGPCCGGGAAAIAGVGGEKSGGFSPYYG
Assay: In vivo MRI of the aortic wall in a murine model of vascular remodelling
Details: ApoE−/− mice after aortic injury and 12 weeks high-fat diet, i.v. 0.2 mmol/kg, LGE MRI at 3 T up to 2 h post-injection
Excerpt: Male ApoE^−/− mice were bred in-house and underwent surgery at 8–10 weeks of age (n = 6). Mice were anesthetised with 4% isoflurane mixed with 1% medical oxygen and anaesthesia was maintained at 2% during the surgery as previously reported. Briefly, mice underwent a laparotomy to expose the abdominal aorta, renal and iliac arteries. Two ligatures were inserted around the aorta (surgical silk, size 4–0, Aragó, Zaragoza, Spain), the first below the renal arteries and the second above the iliac bifurcation. A 30 G needle was introduced into the abdominal aorta at the level of the iliac bifurcation, via an aortic puncture. 1 mL of saline was infused into the aorta in three boluses. Finally, the needle was removed, and the puncture was repaired. The muscle and skin incisions were sutured (5-0 Vicryl, Ethicon Inc, Somerville, NJ), and the animals were allowed to recover. Mice were switched to a high-fat diet (HFD) containing 21% fat from lard and 0.15% (wt/wt) cholesterol (Special Diets Services, Witham, United Kingdom), on day 2 post-surgery for 12 weeks prior to the imaging experiments.
Anaesthesia was induced with 4% and maintained with 1–2% isoflurane during the MRI experiments. Mice (n = 3 per group) were placed supine on a single-loop surface coil (diameter = 47 mm) and the abdominal aorta was imaged up to 2 h post-injection of the monomeric (i.v. 0.2 mmol/kg, 0.2 mmol/kg Gd), the next day with the corresponding tetrameric collagen-binding probe (i.v 0.2 mmol/kg, 0.8 mmol/kg Gd) and the 3rd day using the scrambled probes (n = 2–3 per probe; i.v. 0.2 mmol/kg). This timeline ensures complete washout of one probe from the tissue before the administration of another probe. […]

## Ac-C-RDKKVAEQS [[Gd-DOTAMA]4-SccCBP1, scrambled tetrameric Gd probe (Ac-C-…), negative control]
  signal enhancement of the remodelled aortic wall (in words): No signal enhancement

## Ac-C-TEFPLRMRDWLKN [[Gd-DOTAMA]4-CBP2, tetrameric probe: tri-lysine scaffold bearing four Gd-DOTAMA units conjugated at the N-terminus of CBP2]
  signal enhancement of the remodelled aortic wall (in words): stronger enhancement at 60 min compared with corresponding monomeric probes
